Test results from US20230000869A1, “NOVEL ALK2 INHIBITORS AND METHODS FOR INHIBITING BMP SIGNALING” (The Brigham and Women's Hospital, Inc., priority 2017, published 2023).
pIC50: −log10 of the molar value.

How the values were obtained:
ACVR2A = ACVR2A (Homo sapiens, UniProt P27037); assay: LanthaScreen Eu kinase binding assay, BMP type II receptor ACVR2A; settings: 10-point titration from 10 μM, 3-fold serial dilution, Life Technologies
Description: (§1) For the detailed description of LanthaScreen™ Eu kinase binding assay condition, please see: https://www.thermofisher.com/us/en/home/industrial/pharma-biopharma/drug-discovery-development/target-and-lead-identification-and-validation/kinasebiology/kinase-activity-assays/lanthascreentm-eu-kinas e-binding-assay/lanthascreen-eu-kinase-binding-assay-validation-table.html.

ACVR2B = ACVR2B (Homo sapiens, UniProt Q13705); assay: LanthaScreen Eu kinase binding assay, BMP type II receptor ACVR2B; settings: 10-point titration from 10 μM, 3-fold serial dilution, Life Technologies
Chain of ACVR2B (Q13705 19-512): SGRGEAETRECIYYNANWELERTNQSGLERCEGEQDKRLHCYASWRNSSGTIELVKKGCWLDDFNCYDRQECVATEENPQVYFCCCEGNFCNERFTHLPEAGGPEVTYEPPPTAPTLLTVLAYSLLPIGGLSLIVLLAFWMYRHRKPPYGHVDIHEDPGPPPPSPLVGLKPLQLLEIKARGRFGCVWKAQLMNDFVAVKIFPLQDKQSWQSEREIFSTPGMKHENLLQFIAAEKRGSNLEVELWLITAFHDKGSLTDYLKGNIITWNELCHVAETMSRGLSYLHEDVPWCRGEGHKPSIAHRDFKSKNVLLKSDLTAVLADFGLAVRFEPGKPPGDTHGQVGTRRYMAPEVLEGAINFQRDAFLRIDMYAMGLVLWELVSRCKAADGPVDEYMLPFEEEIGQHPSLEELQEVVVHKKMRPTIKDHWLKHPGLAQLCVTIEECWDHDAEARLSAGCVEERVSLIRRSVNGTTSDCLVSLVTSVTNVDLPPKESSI
Procedure: (§2) Kinase Profiling BMP Type II Receptor Experimental Procedure (Life Technologies, 5225 Vernona Road, Madison, Wis. 53744)
(§3) The measurement of each compound's half maximal inhibitory concentration (IC50) for BMP type II receptors (ACVR2A, ACVR2B, BMPR2 and TGFbR2) was carried out at Life Technologies by using its 10-point titration (starting concentration: 10 μM with 3-fold serial dilution) LanthaScreen™ biochemical kinase assay protocol. For the detailed description of LanthaScreen™ Eu kinase binding assay condition, please see: https://www.thermofisher.com/us/en/home/industrial/pharma-biopharma/drug-discovery-development/target-and-lead-identification-and-validation/kinasebiology/kinase-activity-assays/lanthascreentm-eu-kinas e-binding-assay/lanthascreen-eu-kinase-binding-assay-validation-table.html.

BMPR2 = target: T1, BMPR2 (Homo sapiens, UniProt Q13873); assay: LanthaScreen Eu kinase binding assay, BMP type II receptor BMPR2; settings: 10-point titration from 10 μM, 3-fold serial dilution, Life Technologies
T1 sequence (Q13873 27-1038): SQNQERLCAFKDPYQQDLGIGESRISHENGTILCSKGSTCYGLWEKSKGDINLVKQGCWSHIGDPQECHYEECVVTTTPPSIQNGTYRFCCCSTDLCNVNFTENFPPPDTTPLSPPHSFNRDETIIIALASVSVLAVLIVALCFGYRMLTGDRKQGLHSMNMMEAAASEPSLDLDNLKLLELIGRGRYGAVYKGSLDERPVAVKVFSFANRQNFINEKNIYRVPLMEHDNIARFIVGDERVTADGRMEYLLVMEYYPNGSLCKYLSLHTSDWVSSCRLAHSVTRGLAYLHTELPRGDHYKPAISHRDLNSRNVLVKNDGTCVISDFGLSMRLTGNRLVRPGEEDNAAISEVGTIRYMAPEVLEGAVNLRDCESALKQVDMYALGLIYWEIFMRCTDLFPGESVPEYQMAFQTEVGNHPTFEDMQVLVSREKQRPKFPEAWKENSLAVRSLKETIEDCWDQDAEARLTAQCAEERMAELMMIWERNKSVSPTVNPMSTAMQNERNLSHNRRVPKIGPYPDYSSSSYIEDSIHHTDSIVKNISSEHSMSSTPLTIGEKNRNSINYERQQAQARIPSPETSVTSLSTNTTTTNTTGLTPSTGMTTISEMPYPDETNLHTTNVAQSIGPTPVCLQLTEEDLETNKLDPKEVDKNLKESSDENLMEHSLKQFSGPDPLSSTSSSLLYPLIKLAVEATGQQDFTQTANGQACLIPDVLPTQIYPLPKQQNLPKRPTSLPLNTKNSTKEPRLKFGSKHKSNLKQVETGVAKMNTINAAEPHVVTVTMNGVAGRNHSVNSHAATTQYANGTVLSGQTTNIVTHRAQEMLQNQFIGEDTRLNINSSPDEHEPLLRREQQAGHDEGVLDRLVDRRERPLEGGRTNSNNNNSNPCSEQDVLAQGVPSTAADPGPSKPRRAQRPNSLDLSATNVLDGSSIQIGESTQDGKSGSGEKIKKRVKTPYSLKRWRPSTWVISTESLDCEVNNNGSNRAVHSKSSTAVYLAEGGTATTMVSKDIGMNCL
Procedure: as §2, §3

TGFβR2 = TGFβR2 (Homo sapiens, UniProt P37173); assay: LanthaScreen Eu kinase binding assay, BMP type II receptor TGFbR2; settings: 10-point titration from 10 μM, 3-fold serial dilution, Life Technologies
Chain of TGFβR2 (P37173 23-567): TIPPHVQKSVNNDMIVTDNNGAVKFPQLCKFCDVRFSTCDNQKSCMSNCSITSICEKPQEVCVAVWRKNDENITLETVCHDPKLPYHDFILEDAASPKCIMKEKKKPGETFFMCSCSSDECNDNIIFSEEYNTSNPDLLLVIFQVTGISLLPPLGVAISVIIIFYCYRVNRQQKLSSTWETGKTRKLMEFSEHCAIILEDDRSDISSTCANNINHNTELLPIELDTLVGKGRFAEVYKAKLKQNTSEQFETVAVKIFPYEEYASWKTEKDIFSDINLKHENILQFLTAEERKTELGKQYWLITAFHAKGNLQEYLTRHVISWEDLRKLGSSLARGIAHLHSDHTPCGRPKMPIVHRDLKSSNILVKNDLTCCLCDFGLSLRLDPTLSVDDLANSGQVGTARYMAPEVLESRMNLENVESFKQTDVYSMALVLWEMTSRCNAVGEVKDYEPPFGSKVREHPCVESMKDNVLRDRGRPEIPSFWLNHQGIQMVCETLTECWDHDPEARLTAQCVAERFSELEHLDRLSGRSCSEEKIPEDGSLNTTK
Description: as §1

BMP6 = assay: Cell assay HTRF BMP6 (Table 15); assay type: cell-based
TGFb = assay: Cell assay HTRF TGFb (Table 15); assay type: cell-based; settings: read-out: HRTF TGFb (IC50)
ALK2 [1] = target: T2, ALK2 (Homo sapiens, UniProt Q04771); assay: ALK2 (nM), Table 15; assay type: biochemical
T2 sequence (Q04771 147-509 limits assumed): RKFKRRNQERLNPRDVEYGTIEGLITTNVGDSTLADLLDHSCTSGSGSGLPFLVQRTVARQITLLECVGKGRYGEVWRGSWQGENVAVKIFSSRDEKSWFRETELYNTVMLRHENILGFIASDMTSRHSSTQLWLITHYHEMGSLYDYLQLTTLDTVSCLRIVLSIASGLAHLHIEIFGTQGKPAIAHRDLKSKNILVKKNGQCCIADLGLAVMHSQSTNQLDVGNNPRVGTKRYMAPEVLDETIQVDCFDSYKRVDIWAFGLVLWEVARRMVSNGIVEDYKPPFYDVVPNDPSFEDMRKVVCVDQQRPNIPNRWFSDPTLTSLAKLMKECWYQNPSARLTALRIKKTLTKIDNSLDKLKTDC

ALK2 [2] = target: T3, ALK2 (Mus musculus, UniProt P37172); assay: Luciferase reporter gene assay for ALK2 activity (C2C12 BRE-Luc SMAD1/5/8 reporter, BMP6 agonist); assay type: cell-based; settings: BMP6 50 ng/mL
T3 construct: endogenous in cells; host or cells: C2C12-BRE (BRE-Luc reporter line, G418 selection)
T3 sequence (P37172 21-509): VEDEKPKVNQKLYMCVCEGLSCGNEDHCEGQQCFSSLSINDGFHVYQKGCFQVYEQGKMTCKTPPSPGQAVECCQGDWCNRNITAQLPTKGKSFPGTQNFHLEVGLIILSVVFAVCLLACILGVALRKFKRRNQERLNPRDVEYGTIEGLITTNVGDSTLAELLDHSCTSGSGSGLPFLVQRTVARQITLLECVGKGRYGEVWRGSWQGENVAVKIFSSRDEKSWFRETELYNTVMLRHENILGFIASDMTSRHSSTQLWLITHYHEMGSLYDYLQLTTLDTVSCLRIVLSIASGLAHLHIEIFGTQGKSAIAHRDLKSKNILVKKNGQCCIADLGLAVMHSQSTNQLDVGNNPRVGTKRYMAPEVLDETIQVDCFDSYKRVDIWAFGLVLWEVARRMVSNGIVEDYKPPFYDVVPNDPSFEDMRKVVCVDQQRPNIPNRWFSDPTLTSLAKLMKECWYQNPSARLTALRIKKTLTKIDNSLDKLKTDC
Method in brief: (§4)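 TGFβ activity was measured in HEK293T SBE-Luc cells stimulated with 5 ng/mL TGFβ, at compound 10000-30 nM final. ALK2 activity was measured in C2C12 BRE-Luc cells stimulated with 50 ng/mL BMP6, at compound 1000-0.3 nM final. Compound was preincubated 45 min in 2% FBS medium; after ≥18 h agonist exposure, luminescence was read and inhibition expressed as % signal loss versus background-subtracted agonist controls.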

TGFβ = assay: Luciferase reporter gene assay for TGFβ activity (HEK293T SBE-Luc SMAD2/3 reporter, TGFβ agonist); assay type: cell-based; settings: Homo sapiens, HEK-293T, TGFβ 5 ng/mL
Method in brief: as §4

Chain of ACVR2A (P27037 20-513): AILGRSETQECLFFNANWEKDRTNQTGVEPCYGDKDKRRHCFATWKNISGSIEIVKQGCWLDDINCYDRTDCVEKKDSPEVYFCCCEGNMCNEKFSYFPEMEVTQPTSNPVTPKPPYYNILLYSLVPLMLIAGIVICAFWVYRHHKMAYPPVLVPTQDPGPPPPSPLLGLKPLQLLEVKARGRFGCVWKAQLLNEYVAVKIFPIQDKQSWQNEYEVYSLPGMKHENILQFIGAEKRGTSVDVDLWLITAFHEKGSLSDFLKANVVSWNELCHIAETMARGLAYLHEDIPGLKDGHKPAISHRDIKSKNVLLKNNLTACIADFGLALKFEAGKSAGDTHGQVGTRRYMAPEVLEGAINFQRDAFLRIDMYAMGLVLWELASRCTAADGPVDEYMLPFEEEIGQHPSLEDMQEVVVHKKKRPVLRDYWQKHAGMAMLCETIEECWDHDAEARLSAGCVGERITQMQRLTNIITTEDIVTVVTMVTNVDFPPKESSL

pIC50 (ACVR2A) | pIC50 (ACVR2B) | pIC50 (BMPR2) | pIC50 (TGFβR2) | pIC50 (BMP6) | pIC50 (TGFb) | pIC50 (ALK2 [1]) | pIC50 (ALK2 [2]) | pIC50 (TGFβ) | Structure (SMILES)
6.07 | 5.89 | < 5.00 | 7.15 | 7.01 | 5.34 | 6.96 |  |  | c1ccc2c(-c3cnn4cc(N5CCN(C6CCNCC6)CC5)cnc34)ccnc2c1 [Compound 79]
5.43 | 5.44 | ≤ 5.00 | 6.71 | 6.60 | 5.24 | 7.03 | 7.60 | 7.48 | c1ccc2c(-c3cnn4cc(N5CCNCC5)cnc34)ccnc2c1 [Compound 80]
